# Experimental data published in patent US7815900B1, “Use of C3-C5 monosaccharides to protect keratinous fibers” (L'Oréal S.A., priority 2000, dated 2010).
# Experiments:
# [1] = DSC doublet peak area (α-structure) of hair after heat cycles
# Protocol: (§1) Normal blonde hair was bleached with Clairol Basic White Bleach (40 volume H2O2) for 20 min at standard room temperature and humidity. The bleached swatches were rinsed with tap water, and soaked in an excess of deionized water for 2 hours. The swatches were air-dried and equilibrated for 48 hours prior to further treatment. Some of the bleached swatches were subsequently “permed” using a Reforming Lotion (10% TGA, pH 8.8, 20 minutes) and then neutralized with 2% H2O2, pH 3 (5 minutes). The bleached/permed swatches were rinsed with tap water, and soaked in an excess of deionized water for 2 hours. The swatches were air-dried and equilibrated for 48 hours prior to further treatment. The swatches that were heat treated were treated with 0.06M solutions of hexoses and pentoses for 10 min at 45° C. and then were heated for 12 cycles. The swatches were rinsed after the heat application.
# (§2) In the DSC tests, finely cut hair (4-5 mg) was crimped in an aluminum pan that was punctured prior to each run. The samples were heated from 25° C. to 300° C., at a scanning rate of 20° C./min, with 5 runs per treatment. The results were averaged.
# (§3) Normal blonde hair was bleached with Clairol Basic White Bleach, 40 volume H2O2, for 20 min at room temperature. One batch of normal and bleached hair swatches underwent five heat cycles at 130° C., where one treatment cycle involved the following steps (1-4):
# (§4) 1. The swatches were treated with 0.06 M solutions of monosaccharides in deionized water (about 1 wt %) for 10 min at 45° C.
# (§5) 2. The treated swatches were blow-dried for 1 min.
# (§6) 3. The heat was applied for 1 min in the form of a flat hair iron Windmere “Solid Gold” (130° C.).
# (§7) 4. The swatches were rinsed and blot-dried with a paper-towel.
# (§8) The treatment solutions included four pentoses (D-xylose, D-arabinose, D-lyxose, and D-ribose, 1% each) and one hexose (1.2% D-glucose). Deionized water was used as a control treatment. After the heat experiment, the hair was rinsed in water, air-dried, and equilibrated for 24 hours in the humidity chamber at 25° C. and 50% RH prior to further testing. These swatches are referred to as treated at 130° C.
# (§9) A second batch of normal and bleached hair swatches were treated in a similar way and blow-dried, without application of the hot iron. The treatment was also repeated 5 times, the swatches from the second batch are referred to as treated at 45° C.
# Normal blonde hair was divided in two batches. The hair from the first batch was bleached with Clairol Basic White Bleach, 40 volume H2O2, for 20 min at room temperature and humidity. The hair from the second batch was first bleached as above, and then permed: Reforming lotion-10% Thioglycolic acid, pH 8.8, 20 min; neutralizer-2% hydrogen peroxide, 5 min. The oxidatively damaged hair was equilibrated for 24 hours prior to further testing.
# Both the bleached and the bleached/permed hair were subjected to heat treatment, as in Example 2. The heat treatment experiment involved 12 heat cycles including application of sugar or control solution before each heat application, and rinsing after the heat application. Deionized water was used as a control treatment.
# After the heat experiment, the hair was rinsed in water, air-dried, and equilibrated for 24 h in the humidity chamber at 25° C. and 50% RH prior to further testing. The effect of the hexoses vs. pentoses on the dry tensile strength (INSTRON) and the alpha-structure (doublet peak area, DSC) was tested on the bleached hair (Table 13). The effect of a hexose (D-glucose) vs. a pentose (D-Xylose) on wet tensile strength (DIA-STRON) was tested both on the bleached and the bleached/permed hair (Table 14). Application of 0.06M solutions of pentoses protected the bleached and the bleached/permed hair against thermal damage (α-structure; wet and dry tensile strength).
# [2] = as above; conditions: for Doublet Peak Area, normalized: 5 cycles
# Protocol: as §1, §2, §3, §4, §5, §6, §7, §8, §9
# Normal blonde hair was subjected to 12 heat cycles, as described in Example 2, using the following treatment solutions: 0.1% D-Xylose (pentose), 0.1% D-Erythrose (tetrose), and 0.1% D-Glyceraldehyde (triose). Each of the C3 to C5 monosaccharides was effective in protecting or reducing the damage to the α-structure of the hair, as compared to water treatment (Table 15).
# Normal blonde hair was subjected to 12 heat cycles, as described in Example 2, using 0.1 wt % of the pentose amine derivative, D-Lyxosylimine in deionized water.
# [3] = Dry tensile strength (Instron) after heat cycles; conditions: normal blonde hair, 0.06 M solutions, n = 50 fibers; for Work 25%: dry, 5 cycles at 45° C.; for Work 25% (Dry): 5 heat cycles at 130° C.
# Protocol: Tensile strength was determined using both the Instron (50 dry fibers per tests) and the Dia-Stron (100 wet fibers per test), with the stretching rate of 100 mm/min. The following parameters were determined: Young's Modulus (N/m^2), Work to stretch 25% (J/m^2); Extension to Break (degree of elongation) (%); Work to Break (J/m^2).
# as §3, §4, §5, §6, §7, §8, §9
# [4] = bleached hair after 12 heat cycles, 0.06 M solutions
# [5] = bleached hair after 12 heat cycles, 0.06 M solutions (Table 14)
# [6] = bleached hair, 5 cycles at 45° C., 0.06 M solutions
# [7] = bleached hair, 5 heat cycles at 130° C., 0.06 M solutions
# [8] = normal blonde hair, 5 cycles at 45° C., 0.06 M solutions
# [9] = normal blonde hair, 45° C. (blow drying)
# [10] = normal blonde hair, 130° C. (blow-drying + hot iron)
# [11] = normal blonde hair, 5 heat cycles at 130° C., 0.06 M solutions
Compound,"Doublet Peak Area [1, 4]","Doublet Peak Area [1, 5]","Doublet Peak Area [1, 6]","Doublet Peak Area [1, 7]","Doublet Peak Area [2, 8]","Doublet Peak Area, normalized [2, 9]","Doublet Peak Area, normalized [2, 10]","Doublet Peak Area [2, 11]",Work 25% [3],Work 25% (Dry) [3],"protection effect (normalized α-structure peak area), in words ([1]; bleached and bleached/permed hair, 12 heat cycles)","Normalized area ([1]; bleached hair, 12 heat cycles, 0.06 M)","Normalized area ([2]; normal blonde hair after 12 heat cycles, 1% in water)","Doublet Peak Area ([2]; normal blonde hair, 0.1 wt % solutions, 12 heat cycles at 130° C.)","protection of the hair structure as compared to water (DSC), in words ([2]; normal blonde hair, 12 heat cycles, 1% in water)"
"O=C[C@H](O)[C@@H](O)[C@H](O)[C@H](O)CO [D-Glucose, reference compound]",5.56 +/− 1.16 J/g hair,5.56 +/− 1.16 J/g hair,6.35 +/− 2.71 J/g hair,5.37 +/− 1.22 J/g hair,11.65 +/− 4.98 J/g hair,11.65 +/− 4.98 J/g hair,7.60 +/− 1.01 J/g hair,7.60 +/− 1.01 J/g hair,837.0 +/− 255.9 J/m^2,836.9 +/− 119.6 J/m^2,,,,,
O=C[C@H](O)[C@@H](O)[C@H](O)CO [D-Xylose],9.74 +/− 2.13 J/g hair,9.74 +/− 2.13 J/g hair,8.41 +/− 1.33 J/g hair,9.66 +/− 2.59 J/g hair,20.17 +/− 11.98 J/g hair,20.17 +/− 11.98 J/g hair,15.27 +/− 5.14 J/g hair,15.27 +/− 5.14 J/g hair,"1,155 +/− 224 J/m^2","1,150 +/− 818 J/m^2",protection effect was found,9.74 +/− 2.13 J/g hair,16.05 +/− 5.05 J/g hair,12.74 +/− 2.32 J/g hair,appeared to protect the hair structure
